Experimental data from PMC8161026, “Synthesis and Anticancer Activity Evaluation of 5-[2-Chloro-3-(4-nitrophenyl)-2-propenylidene]-4-thiazolidinones” (Molecules, 2021).

Experiments:
AGS (gastric cancer) = experiment: MTT cell viability assay; type: cell-based; conditions: Homo sapiens, 24 h
Procedure: (§1) In the second stage of the research, Ciminalum-thiazolidinone hybrids were investigated for antitumor activity on the lines of gastric cancer (AGS), human colon cancer (DLD-1), and breast cancers (MCF-7 and MDA-MB-231). The study was performed in the MTT assay according to the method described previously. The studied cancer line was sensitive to the action of the studied compounds that inhibited its growth in micromolar ranges of GI50. The hit compounds that inhibited the growth of all four cancer lines with the lowest GI50 values were [5-[2-chloro-3-(4-nitrophenyl)prop-2-enylidene]-rhodanines 2c, 2d, 2h, and 2i (Table 4).

[1] = tested on: DLD-1 (human colon cancer); experiment: MTT cell viability assay; type: cell-based; conditions: DLD-1, MTT, 24 h
Procedure: as §1

MCF-7 (breast cancer) = experiment: MTT cell viability assay; type: cell-based; conditions: Homo sapiens, MCF7; MCF-7, MTT, 24 h
Procedure: as §1

[2] = tested on: MDA-MB-231 (breast cancer); experiment: MTT cell viability assay; type: cell-based; conditions: Homo sapiens; MDA-MB-231, MTT, 24 h
Procedure: as §1

SR = SR (Leukemia), 48 h, SRB
NCI-H460 = NCI-H460 (Non-Small Cell Lung Cancer), 48 h, SRB
KM12 [3] = conditions: KM12 (Colon Cancer), 48 h, SRB
SW-620 = SW-620 (Colon Cancer), 48 h, SRB
LOX IMVI = LOX IMVI (Melanoma), 48 h, SRB
SK-MEL-28 = SK-MEL-28 (Melanoma), 48 h, SRB
K-562 = experiment: cells; conditions: Homo sapiens, K562, 48 h; for CC50: read-out: LC50
786-0 = 786-0 (Renal Cancer), 48 h, SRB
SN12C = SN12C (Renal Cancer), 48 h, SRB
PC-3 [4] = conditions: PC-3 (Prostate Cancer), 48 h, SRB
NCI-H23 = experiment: cells; conditions: Homo sapiens, NCI-H23, 48 h; for CC50: read-out: LC50
KM12 [5] = experiment: cells; conditions: Homo sapiens, KM12, 48 h; for CC50: read-out: LC50
PC-3 [6] = experiment: cells; conditions: Homo sapiens, PC-3, 48 h; for CC50: read-out: LC50
DU-145 = experiment: cells; conditions: Homo sapiens, DU-145, 48 h; for CC50: read-out: LC50
NCI-H522 = experiment: NCI DTP 60 cell line screen, SRB
Colo 205 = experiment: NCI DTP 60 cell line screen, SRB; conditions: for TGI: Colo 205 (Colon Cancer), 48 h, SRB; for GI50 / CC50: Homo sapiens, COLO 205, 48 h; for CC50: read-out: LC50
HCC-2998 = experiment: NCI DTP 60 cell line screen, SRB
HT-29 = experiment: NCI DTP 60 cell line screen, SRB; conditions: for TGI: HT-29 (Colon Cancer), 48 h, SRB; for GI50 / CC50: Homo sapiens, HT-29, 48 h; for CC50: read-out: LC50
SK-MEL-5 = experiment: NCI DTP 60 cell line screen, SRB; conditions: for GI50 / CC50: Homo sapiens, SK-MEL-5, 48 h; for CC50: read-out: LC50; for TGI: SK-MEL-5 (Melanoma), 48 h, SRB
UACC-62 = experiment: NCI DTP 60 cell line screen, SRB; conditions: for GI50 / CC50: Homo sapiens, UACC-62, 48 h; for CC50: read-out: LC50; for TGI: UACC-62 (Melanoma), 48 h, SRB
OVCAR-5 = experiment: NCI DTP 60 cell line screen, SRB
TK-10 = experiment: NCI DTP 60 cell line screen, SRB; conditions: for GI50 / CC50: Homo sapiens, TK-10, 48 h; for CC50: read-out: LC50; for TGI: TK-10 (Renal Cancer), 48 h, SRB
UO-31 = experiment: NCI DTP 60 cell line screen, SRB; conditions: for GI50 / CC50: Homo sapiens, UO-31, 48 h; for CC50: read-out: LC50; for TGI: UO-31 (Renal Cancer), 48 h, SRB
NCI/ADR-Res = experiment: NCI DTP 60 cell line screen, SRB; conditions: 48 h; for GI50 / CC50: Homo sapiens, NCI/ADR-RES; for CC50: read-out: LC50; for TGI: NCI/ADR-Res (Breast Cancer), SRB
HS 578T = experiment: NCI DTP 60 cell line screen, SRB; conditions: 48 h
RXF 393 [7] = conditions: RXF 393 (Renal Cancer), 48 h, SRB
RXF 393 [8] = experiment: cells; conditions: Homo sapiens, RXF 393, 48 h

For `O=C1NC(=S)S/C1=C\C(Cl)=C\c1ccc([N+](=O)[O-])cc1` [Compound 2b, 5-[(Z,2Z)-2-Chloro-3-(4-nitrophenyl)-2-propenylidene]-2-thioxo-4-thiazolidinone], the GI50 (AGS (gastric cancer)) was 7.86 µM, the GI50 [1] was 8.39 µM and the GI50 (MCF-7 (breast cancer)) was 4.79 µM. The GI50 [2] was 10.6 µM, the TGI (SR) was 7.96 µM and the TGI (NCI-H460) was 18.6 µM. It also gave a TGI (KM12 [3]) of 14.6 µM, a TGI (SW-620) of 7.62 µM and a TGI (LOX IMVI) of 15.4 µM. The TGI (SK-MEL-28) was 12.3 µM, the GI50 (K-562) was 1.44 µM and the CC50 (K-562) was greater than 50 µM. For the same molecule, the TGI (786-0) was 18.8 µM, the TGI (SN12C) was 18.0 µM and the TGI (PC-3 [4]) was greater than 50 µM. It also gave a GI50 (NCI-H23) of 3.27 µM, a CC50 (NCI-H23) of 45.5 µM and a GI50 (KM12 [5]) of 5.27 µM. It also gave a CC50 (KM12 [5]) of 40.4 µM, a GI50 (PC-3 [6]) of 4.68 µM and a CC50 (PC-3 [6]) greater than 50 µM. For the same molecule, the GI50 (DU-145) was 7.09 µM, the CC50 (DU-145) was 28.4 µM and the GI50 (NCI-H522; Homo sapiens, NCI-H522, 48 h) was 3.19 µM. For the same molecule, the CC50 (NCI-H522; Homo sapiens, NCI-H522, 48 h, read-out: LC50) was 42.3 µM, the TGI (NCI-H522; NCI-H522 (Non-Small Cell Lung Cancer), 48 h, SRB) was 13.1 µM and the TGI (Colo 205) was 17.4 µM. For the same molecule, the GI50 (Colo 205) was 4.04 µM, the CC50 (Colo 205) was greater than 50 µM and the TGI (HCC-2998; HCC-2998 (Colon Cancer), 48 h, SRB) was 11.7 µM. It also gave a GI50 (HCC-2998; Homo sapiens, HCC 2998, 48 h) of 5.43 µM, a CC50 (HCC-2998; Homo sapiens, HCC 2998, 48 h, read-out: LC50) of 25 µM and a TGI (HT-29) of 9.48 µM. The GI50 (HT-29) was 1.48 µM, the CC50 (HT-29) was greater than 50 µM and the GI50 (SK-MEL-5) was 3.82 µM. The CC50 (SK-MEL-5) was 24 µM, the TGI (SK-MEL-5) was 10.6 µM and the GI50 (UACC-62) was 5.75 µM. For the same molecule, the CC50 (UACC-62) was 27.2 µM, the TGI (UACC-62) was 12.5 µM and the GI50 (OVCAR-5; Homo sapiens, OVCAR-5, 48 h) was 11.1 µM. The CC50 (OVCAR-5; Homo sapiens, OVCAR-5, 48 h, read-out: LC50) was 32.4 µM, the TGI (OVCAR-5; OVCAR-5 (Ovarian Cancer), 48 h, SRB) was 19.5 µM and the GI50 (TK-10) was 10.6 µM. For the same molecule, the CC50 (TK-10) was greater than 50 µM, the TGI (TK-10) was 23.2 µM and the GI50 (UO-31) was 4.12 µM. The CC50 (UO-31) was greater than 50 µM, the TGI (UO-31) was 21.8 µM and the GI50 (NCI/ADR-Res) was 5.71 µM. For the same molecule, the CC50 (NCI/ADR-Res) was greater than 50 µM, the TGI (NCI/ADR-Res) was 18.3 µM and the TGI (HS 578T; HS 578T (Breast Cancer), SRB) was 12.1 µM. It also gave a GI50 (HS 578T; Homo sapiens, Hs-578T) of 1.42 µM and a CC50 (HS 578T; Homo sapiens, Hs-578T, read-out: LC50) greater than 50 µM.
Work on `O=C(O)CCN1C(=O)/C(=C/C(Cl)=C/c2ccc([N+](=O)[O-])cc2)SC1=S` [Compound 2h, 3-{5-[(Z,2Z)-2-Chloro-3-(4-nitrophenyl)-2-propenylidene]-4-oxo-2-thioxothiazolidin-3-yl}propanoic acid] yielded a GI50 (AGS (gastric cancer)) of 2.69 µM, a GI50 [1] of 3.67 µM and a GI50 (MCF-7 (breast cancer)) of 3.62 µM. It also gave a GI50 [2] of 1.63 µM, a TGI (SR) of 1.41 µM and a TGI (NCI-H460) of 3.32 µM. The TGI (KM12 [3]) was 29.5 µM, the TGI (SW-620) was 3.25 µM and the TGI (LOX IMVI) was 0.515 µM. It also gave a TGI (SK-MEL-28) of 23.6 µM, a GI50 (K-562) of 0.212 µM and a CC50 (K-562) greater than 100 µM. It also gave a TGI (786-0) of 2.47 µM, a TGI (RXF 393 [7]) of 0.341 µM and a TGI (SN12C) of 2.99 µM. The TGI (PC-3 [4]) was 13.7 µM, the GI50 (NCI-H23) was 1.44 µM and the CC50 (NCI-H23) was 7.19 µM. For the same molecule, the GI50 (KM12 [5]) was 0.639 µM, the CC50 (KM12 [5]) was greater than 100 µM and the GI50 (RXF 393 [8]) was 0.105 µM. For the same molecule, the CC50 (RXF 393 [8]; read-out: LC50) was 1.73 µM, the GI50 (PC-3 [6]) was 0.712 µM and the CC50 (PC-3 [6]) was 41.9 µM. The GI50 (DU-145) was 0.421 µM, the CC50 (DU-145) was 52.3 µM and the TGI (Colo 205) was greater than 100 µM. The GI50 (Colo 205) was 0.35 µM, the CC50 (Colo 205) was greater than 100 µM and the TGI (HT-29) was 2.77 µM. It also gave a GI50 (HT-29) of 1.25 µM, a CC50 (HT-29) greater than 100 µM and a GI50 (SK-MEL-5) of 0.0193 µM. For the same molecule, the CC50 (SK-MEL-5) was 1.88 µM, the TGI (SK-MEL-5) was 0.0849 µM and the GI50 (UACC-62) was 1.23 µM. It also gave a CC50 (UACC-62) of 7.18 µM, a TGI (UACC-62) of 2.97 µM and a GI50 (TK-10) of 2.33 µM. It also gave a CC50 (TK-10) of 92 µM, a TGI (TK-10) of 16.9 µM and a GI50 (UO-31) of 0.812 µM. For the same molecule, the CC50 (UO-31) was 6.31 µM, the TGI (UO-31) was 2.43 µM and the GI50 (NCI/ADR-Res) was 0.407 µM. The CC50 (NCI/ADR-Res) was 6.43 µM and the TGI (NCI/ADR-Res) was 2.11 µM.
